From US7192981B2, “3,4-dihydroxyhydrocinnamic acid derivative” (Bionutrigen Co., Ltd., priority 2005, dated 2007)

Experiments:
Assay type in all cases: in vivo, mouse
[1] = Body weight and gross liver observation in DHH105-treated mice
Protocol: First, the effect of DHH105 on the non-fasting blood glucose level in ob/ob mice, an animal model of type 2 diabetes, was examined in vivo. […] DHH105 was dissolved in DMSO and emulsified in olive oil (1:50 v/v). DHH105, at a dose of 150 mg/kg body weight (b.w.) in 100 μl, was injected intraperitoneally (i.p.) every day into diabetic ob/ob mice (blood glucose level>230 mg/dl) and STZ-treated diabetic C57BL/6 mice (blood glucose level>300 mg/dl). Control mice received the same amount of olive oil without DHH105. Blood glucose levels were measured with a glucometer (One Touch Ultra, Lifescan, Milpitas, Calif.) every morning between 9:00–10:00 a.m. just before injection of DHH105.

[2] = tested on: STZ-induced diabetic C57BL/6 mice; assay: Blood glucose and glucose tolerance test in STZ-induced diabetic mice; conditions: 150 mg/kg i.p. daily, at 2 weeks after treatment
Description: Male C57BL/6 and C57BL/6 ob/ob mice were purchased from The Jackson Laboratory (Bar Harbor, Me.), and Sprague-Dawley (SD) rats were purchased from Charles River Laboratories (Wilmington, Mass.). The animals were maintained and bred under specific pathogen-free conditions and provided with sterile food and water ad libitum at the Animal Resources Centre, Faculty of Medicine, University of Calgary. The use and care of the animals used in this study were approved by the Animal Care Committee, Faculty of Medicine, University of Calgary.
DHH105 was dissolved in DMSO and emulsified in olive oil (1:50 v/v). DHH105, at a dose of 150 mg/kg body weight (b.w.) in 100 μl, was injected intraperitoneally (i.p.) every day into diabetic ob/ob mice (blood glucose level>230 mg/dl) and STZ-treated diabetic C57BL/6 mice (blood glucose level>300 mg/dl). Control mice received the same amount of olive oil without DHH105. Blood glucose levels were measured with a glucometer (One Touch Ultra, Lifescan, Milpitas, Calif.) every morning between 9:00–10:00 a.m. just before injection of DHH105.
To determine whether treatment with DHH105 can decrease the blood glucose level in STZ-induced diabetic C57BL/6 mice (blood glucose levels>300 mg/dl), mice were treated with DHH105 (150 mg/kd) daily for 2 weeks. […] Blood glucose levels were measured at 0, 15, 30, 60, and 120 min after glucose injection.

IRS-1 = assay: Phosphorylation of IRS-1 in adipose tissue of treated diabetic mice; conditions: 2 weeks of DHH105 treatment
Protocol: Adipocytes treated with DHH105 for 2 h or insulin for 10 min were homogenized in 5 ml lysis buffer (20 mM Tris, pH 7.4, 1% SDS, 10% glycerol, 150 mM NaCl, 2 mM EDTA, 20 mM NaF, 1 mM NaVO4, 2 mM sodium pyrophosphate, protease inhibitor cocktail, and phosphatase inhibitor cocktail) with a teflon pestle (15 strokes). Homogenized adipocytes were sonicated for 3 min and solubilized for 30 min. The homogenate was centrifuged at 3,000 g for 10 min at 4° C. The protein concentration of the lysate was determined by the Bradford method. After dilution (1 μg/μl protein concentration), the lysates were incubated with anti-insulin receptor-β (IR-β) antibody (Upstate Biotech, Charlottesville, Va.) or anti-IRS-1 antibody (Upstate Biotech) overnight at 4° C. Protein A Sepharose beads (100 μl, Amersham Pharmacia Biotech) were added and the mixture was gently rocked for 2 h at 4° C. […] The membranes were washed and the immunoreactive proteins were detected with an enhanced chemoluminescence western blot detection kit (Amersham Pharmacia Biotech). To examine whether in vivo treatment of STZ-induced diabetic C57BL/6 mice or ob/ob mice with DHH105 also increases phosphorylation of IR-β, and IRS-1, fat tissue was removed from the mice after 2 weeks of DHH105 treatment and phosphorylation of IR-β and IRS-1 was measured by immunoprecipitation and western blot.

With `O=C(CCc1ccc(O)c(O)c1)OCc1cccc2ccccc12` [DHH105, 3,4-dihydroxyhydrocinnamic acid naphthalene methyl ester] the “gross lesions of the liver” value ([1]; DHH105-treated mice) was “no gross lesions”, the “body weight, treated vs untreated mice” value ([1]; DHH105-treated vs untreated mice) was “no differences” and the blood glucose levels [2] was “significantly decreased”. The “phosphorylation of IRS-1 in adipose tissue” value (IRS-1; STZ-induced diabetic C57BL/6 mice) was “increased” and the “phosphorylation of IRS-1 in adipose tissue” value (IRS-1; ob/ob mice) was “increased”.
